The source of these data is patent US4560703A, “Clavulone derivatives, process for preparing the same, and use of said compounds” (Fujisawa Pharmaceutical Co., Ltd., priority 1982, dated 1985).

SMILES strings stand for the structures.

For one assay, the system named is granulation tissue. The assay can be described thus: Inhibitory effect on proliferation of granulation tissue (fertile egg method). The class given is in vivo, Babcock strain chickens (fertile eggs). The note with it: for inhibitory effect on proliferation of granulation tissue (in words): fertile egg method. How it is done:
The anti-inflammatory activity was tested by the inhibitory effect on proliferation of granulation tissue which is one of the tests for determining anti-inflammatory activity as follows:
Fertile eggs of Babcock strain chickens were incubated at 38° C. for 9 days. The shell and shell membrane were then removed according to the method of D'arcy et al (cf. D'arcy, P. F. et al, Brit. J. Pharmac. Chemother., 29, 378 (1967). A sterile filter paper disc (diameter: 9 mm) was implanted on the chorio-allantoic membrane and the opening in the shell was sealed with cellophane tape. The eggs were then reincubated for 4 days and at the end of this period, the filter paper disc with granulation tissue was dissected from the chorio-allantoic membrane and then dried at 60° C. for 12 hours. In order to assess the actual amount of granulation tissue present, the weight of filter paper disc which was used in this experiment was subtracted from the total weight of the disc plus granulation tissue.
The test compound was dissolved in an organic solvent (acetone) and 20 μl of the solution was applied on the each disc. The disc was dried and then used in this test. The mean weight of the granulation tissue in each group was compared with that of the control group which was treated with a vehicle alone.
Clavulone-1, clavulone-2, clavulone-3, clavulone-4 and clavulone-5 were used as the test compounds.

A further assay relates to leukemia L-1210 cells. The assay can be described thus: Inhibitory activity on proliferation of leukemia L-1210 cells. The class given is cell-based, mice. The note with it: Mus musculus, L1210, 96 h, 4 days, read-out: Growth Rate (%) (viable cells, control = 100); for activity at 0.1 µg/mL: 0.1 μg/ml; for activity at 0.4 µg/mL: 0.4 μg/ml; for activity at 1 µg/mL: 1.0 μg/ml; for activity at 0.2 µg/mL: 0.2 μg/ml. The method, then: (§1) Moreover, the anti-tumor activities of the clavulone derivatives (I) were tested by the inhibitory activity on propagation of leukemia L-1210 cells, DBA/MC fibrosarcoma cells, and B-16 melanoma cells in mice and also apothanasia effect of mice implanted with leukemia P388 cells and Ehrlich carcinoma cells as in the following experiments.
The test compounds (clavulone-1, -2 and -3) were each dissolved in ethanol and diluted with a medium (RPMI-1640) in a prescribed concentration. Said RPMI-1640 medium contained 10% by weight of fetal calf serum.
Leukemia L-1210 cells (cell concentration: 1×10^5 cells/ml) were inoculated in the RPMI-1640 medium containing the test compound (0.1 to 4.0 μg/ml) and cultured under the conditions of 5% CO2 in air, saturated humidity and at 37° C. for 4 days.
Immediately after the cultivation, the L-1210 cells were stained with trypan blue. Number of viable cells (i.e. cells which were not stained with trypan blue) was counted, and the number of viable cells was compared with that in the control group (no drug was added). The results are shown in Table 2, wherein the number of viable cells in the control group was counted as 100.

For assay [1], the system named is DBA/MC fibrosarcoma cells. The assay can be described thus: Inhibitory activity on proliferation of DBA/MC fibrosarcoma cells. The assay is classed as cell-based, mice. To be noted: Mus musculus, 48 hours, read-out: Inhibitory Rate (%); for inhibition at 3 µg/mL: 3.0 μg/ml; for inhibition at 20 µg/mL: 20.0 μg/ml; for inhibition at 30 µg/mL: 30.0 μg/ml. The method, then: as §1
The test compounds (clavulone derivatives) were each dissolved in ethanol and diluted with a phosphate-buffer physiological saline solution and further diluted with an eagle's MEM medium in a prescribed concentration. Said eagle's MEM medium contained 20% by weight of fetal calf serum and 0.4% by weight of lactalubumin hydrolysates.
DBA/MC Fibrosarcoma cells (cell concentration: 2.5×10^4 cells/ml) were floated on the eagle's MEM medium and cultured under the conditions of 5% CO2 in air, saturated humidity and at 37° C. for 24 hours. Thereafter, the medium was replaced with the above test compound-containing medium and then it was cultured under the same conditions for 48 hours.
Immediately after the cultivation, the DBA/MC cells were fised with methanol and stained with Giemsa solution. The stained cells were counted with a microscope, and the number of stained cells was compared with that of the control group (no test compound was added). The inhibitory rate was calculated by the following equation: [formula]

In a further assay the test system is leukemia P388 cells. The assay can be described thus: Apothanasia effect in mice implanted with leukemia P388 cells. The class given is in vivo, BDFI male mice. To be noted: intraperitoneal, once a day, 1st-4th and 7th-11th day. The method, then:
Clavulone-2 was mixed with gum arabic in the ratio of 1.6:1 by weight and was mixed with a physiological saline solution in a prescribed concentration to give a test compound solution.
BDFI male mice (5 weeks old, weighing 22.0-24.4 g, 6 animals per group) were used.
Each mice was inoculated intraperitoneally with leukemia P388 cells (cell concentration: 1×10^7 cells/ml) in 0.2 ml Hank's solution. A solution of a test compound in a physiological saline solution was injected intraperitoneally once a day from the first day to 4th day and also from 7th day to 11th day after inoculation of the tumor cells. The control group was given with a vehicle (a physiological saline solution) alone in the same way.
The apothanasia effect of the test compound was estimated by comparing mean survival time between the medicated group and the control group by the following equation: [formula]

In another assay the test system is Ehrlich carcinoma cells. The assay can be described thus: Anti-tumor effect in mice implanted with Ehrlich carcinoma cells. The assay is classed as in vivo, female ICR strain mice. The note with it: for MST / Survivors on 60th day/number of mice in one group / I.L.S. (%): 1st-4th day; for I.L.S. (%): 25 or more = effective. The method, then: Six or twelve female ICR strain mice (6 weeks old, weighing 22.2-26.8 g) were used.
The test drug was prepared by mixing clavulone-2 with gum arabic, suspending the mixture in a sterilized saline solution in a concentration of clavulone-2 of 10, 18 or 25 mg/10 ml.
Ehrlich carcinoma cells were serially passaged in an ascites form in ICR strain mice. The tumor cells were harvested from ICR strain mice on 6th day after inoculation, washed with and resuspended in Hank's solution in a concentration of 5×10^5 cells/ml.
Tumor cells (1×10^5 cells/0.2 ml/mouse) were implanted intraperitoneally. The test drug (clavulone-2, 10 ml/kg) was injected intraperitoneally once a day from first to 4th day after the implantation of tumor cells. Control mice were injected with a saline solution in the same as above.
The anti-tumor effect of clavulone-2 was evaluated by means of I.L.S. (%) which was calculated by the following equation: [formula]

The subject of another assay is B-16 melanoma cells. The assay can be described thus: Anti-tumor effect on B-16 melanoma in mice. The class given is in vivo, C57BL/6 female mice. The note with it: local injection. How it is done:
C57BL/6 female mice (12 weeks old, weighing 18.4-21.6 g, each group: 10 animals) were used.
The test drug was prepared by dissolving clavulone-2 in ethanol and diluting with a saline solution in a concentration of clavulone-2 of 100 μg/ml.
B-16 melanoma cells were serially passaged in subcutaneously implanted form in C57BL/6 mice. The tumor cells were dissected out from C57BL/6 mice on 16th day after implantation, weighed, and mixed homogeneously with Hank's solution in a ratio of 1:9 by weight.
Tumor cells (2×10^5 cells/0.05 ml/mouse) were implanted subcutaneously. The test drug (clavulone-2, 10 μg/0.1 ml) was injected locally into tumor cell-implanted site for three weeks except the weekend. Control mice were injected with a vehicle (1% ethanol in saline solution) in the same as above.
After 21 days from the implantation of tumor cells, mice were killed by chloroform anethesia, and the tumor masses were removed and weighed. The anti-tumor effect of clavulone-2 was evaluated by means of growth inhibition rate calculated by the following equation:
Growth inhibition rate (%)=(1-T/C)×100
T: Mean tumor weight of mice treated with the test compound-containing solution
C: Mean tumor weight of mice treated with the vehicle solution.

The mark [2] stands for this setting: 10 μg/0.1 ml, three weeks except weekend, 21 days.

As for `CCCCC/C=C\CC1(OC(C)=O)C=CC(=O)/C1=C/C=C\C(CCC(=O)OC)OC(C)=O` (centres unmarked) [Clavulone-1], in the assay on granulation tissue (Dose 30, on filter paper disc), the “Inhibitory rate (%)” value stood at 15.8%. Also, the “Inhibitory rate (%)” value with granulation tissue (Dose 100, on filter paper disc) amounted to 30.4%. Besides, the “inhibitory effect on proliferation of granulation tissue (in words)” value (shortened to “inhibitory effect on proliferation”) with granulation tissue is given as “showed the inhibitory effect on proliferation of granulation tissue”. Moreover, in the assay on leukemia L-1210 cells, the activity at 0.1 µg/mL came to 100%, the activity at 0.4 µg/mL was determined as 24.7% and the activity at 1 µg/mL was 0%. Besides, in assay [1], the inhibition at 3 µg/mL is 50% and the inhibition at 20 µg/mL amounted to 100%.
For `CCCCC/C=C\CC1(OC(C)=O)C=CC(=O)/C1=C/C=C/C(CCC(=O)OC)OC(C)=O` (centres unmarked) [Clavulone-2], the “Inhibitory rate (%)” value in the assay with granulation tissue (Dose 30, on filter paper disc) is reported as 10.1%. The “Inhibitory rate (%)” value in the assay with granulation tissue (Dose 100, on filter paper disc) was found to be 21.0%. For the same compound, the “inhibitory effect on proliferation” value in the assay with granulation tissue is on record as “showed the inhibitory effect on proliferation of granulation tissue”. Moreover, in the assay with leukemia L-1210 cells, the activity at 0.1 µg/mL is 61.5%, the activity at 0.2 µg/mL came out at 55.4%, the activity at 0.4 µg/mL worked out at 16.9% and the activity at 1 µg/mL was determined as 0%. Further, in assay [1], the inhibition at 3 µg/mL was 0% and the inhibition at 20 µg/mL was 100%. Besides, the “Apothanasia effect (%)” value in the assay on leukemia P388 cells (4.0 mg/kg) was 130%. Moreover, in the assay on leukemia P388 cells (8.0 mg/kg), the “Apothanasia effect (%)” value is reported as 130%. Besides, in the assay on Ehrlich carcinoma cells (10 mg/kg, intraperitoneal), the “MST” value is 26.5 days, the “Survivors on 60th day/number of mice in one group” value was 2/6 and the “I.L.S. (%)” value is on record as 23%. In the assay on Ehrlich carcinoma cells (18 mg/10 ml/kg), the “animals survived 60 days after implantation of tumor cells” value is given as 50%. Also, in the assay with Ehrlich carcinoma cells (18 mg/kg, intraperitoneal), the “MST” value turned out to be 50.0 days, the “Survivors on 60th day/number of mice in one group” value is reported as 3/6 and the “I.L.S. (%)” value amounted to 133%. Besides, in the assay on Ehrlich carcinoma cells (intraperitoneal), the “activity against Ehrlich ascites tumor in vivo (in words)” value is “high activity against Ehrlich ascites tumor in vivo”. For the same compound, in the assay on B-16 melanoma cells (setting [2]), the “Growth inhibition rate (%)” value is reported as 73% and the “Mean tumor weight (g; ± S.E.)” value worked out at 0.882 ± 0.388 g. In addition, in the assay with B-16 melanoma cells (10 μg/0.1 ml, group of 10 animals), the “number of survivors 21th day after implantation of tumor cells” value was 10.
As for `CCCCC/C=C\CC1(OC(C)=O)C=CC(=O)/C1=C\C=C\C(CCC(=O)OC)OC(C)=O` (centres unmarked) [Clavulone-3], the “Inhibitory rate (%)” value in the assay on granulation tissue (Dose 30, on filter paper disc) stood at 26.1%. In addition, in the assay with granulation tissue (Dose 100, on filter paper disc), the “Inhibitory rate (%)” value amounted to 31.0%. The “inhibitory effect on proliferation” value in the assay on granulation tissue is given as “showed the inhibitory effect on proliferation of granulation tissue”. In the assay with leukemia L-1210 cells, the activity at 0.1 µg/mL is 87.5%, the activity at 0.2 µg/mL stood at 52%, the activity at 0.4 µg/mL came to 17.2% and the activity at 1 µg/mL was determined as 0%. Besides, in assay [1], the inhibition at 3 µg/mL was found to be 0% and the inhibition at 20 µg/mL turned out to be 100%.
Turning to `COC(=O)CCC(/C=C/C=C1/C(=O)C=CC1(C/C=C\CCCCCOC(C)=O)OC(C)=O)OC(C)=O` (centres unmarked) [Clavulone-4], the “Inhibitory rate (%)” value with granulation tissue (Dose 30, on filter paper disc) is 18.3%. For the same compound, the “Inhibitory rate (%)” value in the assay with granulation tissue (Dose 100, on filter paper disc) is listed as 34.2%. The “inhibitory effect on proliferation” value in the assay on granulation tissue is given as “showed the inhibitory effect on proliferation of granulation tissue”. Besides, in assay [1], the inhibition at 3 µg/mL is 0% and the inhibition at 20 µg/mL came out at 100%.
The like results for `COC(=O)CCC(/C=C/C=C1\C(=O)C=CC1(C/C=C\CCCCCOC(C)=O)OC(C)=O)OC(C)=O` (centres unmarked) [Clavulone-5] were, in that order, 18.2%, 31.6%, “showed the inhibitory effect on proliferation of granulation tissue”, 0% and 100%.
Regarding `COC(=O)CCC(/C=C\C=C1\C(=O)C=CC1(C/C=C\CCCCCOC(C)=O)OC(C)=O)OC(C)=O` (centres unmarked) [Clavulone-6], in assay [1], the inhibition at 3 µg/mL is 90%, the inhibition at 20 µg/mL came to 100% and the inhibition at 30 µg/mL was found to be 100%. Also, the “Growth inhibition rate (%)” value with B-16 melanoma cells (setting [2]) turned out to be 73%. Moreover, the “growth of B-16 melanoma in mice (in words)” value with B-16 melanoma cells (21 days) was “regressed significantly”.
Take `CCCCCCCCC1CCC(=O)C1CCCC(CCC(=O)OC)OC(C)=O` (centres unmarked) [Clavulone-13]: in assay [1], the inhibition at 3 µg/mL came out at 0% and the inhibition at 30 µg/mL turned out to be 100%.
